The values below come from patent US20140343000A1 (priority 2011, published 2014).

Like-named read-outs stand apart in the source and are kept apart here. Where only a bound is given, the exact number is not on record here.

For this assay, the system named is recombinant NL4-3 virus (Renilla luciferase in nef, Gag P373S; NLRluc) in MT-2 cells. Nature of the assay: whole plant or invertebrate. The assay is classed as cell-based, HIV. To be noted: Renilla, NL43, luciferase activity in cells infected for 4-5 days with NLRluc recombinants, serial dilutions of inhibitor, read-out: EC50. The method, boiled down: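 Inhibitor potency against the reporter virus comes from reduced luciferase activity in infected MT-2 cells exposed to a dilution series of compound over 4-5 days.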

Regarding `C=C(C)[C@@H]1CC[C@]2(NC(=O)N(CCCOC)CCN3CCS(=O)(=O)CC3)CC[C@]3(C)[C@H](CC[C@@H]4[C@@]5(C)CC=C(c6ccc(C(=O)O)cc6)C(C)(C)[C@@H]5CC[C@]43C)[C@@H]12` [Example 68, 4-((1R,3aS,5aR,5bR,7aR,11aS,11bR,13aR,13bR)-3a-(((2-(1,1-dioxido-4-thiomorpholinyl)ethyl)(3-methoxypropyl)carbamoyl)amino)-1-isopropenyl-5a,5b,8,8,11a-pentamethyl-2,3,3a,4,5,5a,5b,6,7,7a,8,11,11a,11b,12,13,13a,13b-octadecahydro-1H-cyclopenta[a]chrysen-9-yl)benzoic acid], the EC50 (as a rule, the midpoint of the concentration-response curve) (class symbols (key in Table 1)) was under 0.1 µM.
Same read-out and setting: for `C=C(C)[C@@H]1CC[C@]2(NC(=O)NCCc3c[nH]cn3)CC[C@]3(C)[C@H](CC[C@@H]4[C@@]5(C)CC=C(c6ccc(C(=O)O)cc6)C(C)(C)[C@@H]5CC[C@]43C)[C@@H]12` [Example 13, 4-((1R,3aS,5aR,5bR,7aR,11aS,11bR,13aR,13bR)-3a-(3-(2-(1H-imidazol-4-yl)ethyl)ureido)-5a,5b,8,8,11a-pentamethyl-1-(prop-1-en-2-yl)-2,3,3a,4,5,5a,5b,6,7,7a,8,11,11a,11b,12,13,13a,13b-octadecahydro-1H-cyclopenta[a]chrysen-9-yl)benzoic acid] the value was under 0.1 µM.
Still for that read-out and setting: the result for `C=C(C)[C@@H]1CC[C@]2(NC(N)=O)CC[C@]3(C)[C@H](CC[C@@H]4[C@@]5(C)CC=C(c6ccc(C(=O)O)cc6)C(C)(C)[C@@H]5CC[C@]43C)[C@@H]12` [Example 69-1, 4-((1R,3aS,5aR,5bR,7aR,11aS,11bR,13aR,13bR)-5a,5b,8,8,11a-pentamethyl-1-(prop-1-en-2-yl)-3a-ureido-2,3,3a,4,5,5a,5b,6,7,7a,8,11,11a,11b,12,13,13a,13b-octadecahydro-1H-cyclopenta[a]chrysen-9-yl)benzoic acid] reads under 0.1 µM; that for `CC(C)[C@@H]1CC[C@]2(NC(=O)CN3CCS(=O)(=O)CC3)CC[C@]3(C)[C@H](CC[C@@H]4[C@@]5(C)CC=C(c6ccc(C(=O)O)cc6)C(C)(C)[C@@H]5CC[C@]43C)[C@@H]12` [Example 129, 4-((1S,3aS,5aR,5bR,7aR,11aS,11bR,13aR,13bR)-3a-(((1,1-dioxido-4-thiomorpholinyl)acetyl)amino)-1-isopropyl-5a,5b,8,8,11a-pentamethyl-2,3,3a,4,5,5a,5b,6,7,7a,8,11,11a,11b,12,13,13a,13b-octadecahydro-1H-cyclopenta[a]chrysen-9-yl)benzoic acid], under 0.1 µM.
For the molecule `C=C(C)[C@@H]1CC[C@]2(N(CCN3CCCC3)CCN3CCCC3)CC[C@]3(C)[C@H](CC[C@@H]4[C@@]5(C)CC=C(c6ccc(C(=O)O)cc6)C(C)(C)[C@@H]5CC[C@]43C)[C@@H]12` [Example 167, 4-((1R,3aS,5aR,5bR,7aR,11aS,11bR,13aR,13bR)-3a-(bis(2-(pyrrolidin-1-yl)ethyl)amino)-5a,5b,8,8,11a-pentamethyl-1-(prop-1-en-2-yl)-2,3,3a,4,5,5a,5b,6,7,7a,8,11,11a,11b,12,13,13a,13b-octadecahydro-1H-cyclopenta[a]chrysen-9-yl)benzoic acid], the EC50 (numeric values) amounted to 0.004 µM.
Regarding `C=C(C)[C@@H]1CC[C@]2(NC(=O)CN3CC(F)(F)C3)CC[C@]3(C)[C@H](CC[C@@H]4[C@@]5(C)CC=C(c6ccc(C(=O)O)cc6)C(C)(C)[C@@H]5CC[C@]43C)[C@@H]12` [Example 94, 4-((1R,3aS,5aR,5bR,7aR,11aS,11bR,13aR,13bR)-3a-(2-(3,3-difluoroazetidin-1-yl)acetamido)-5a,5b,8,8,11a-pentamethyl-1-(prop-1-en-2-yl)-2,3,3a,4,5,5a,5b,6,7,7a,8,11,11a,11b,12,13,13a,13b-octadecahydro-1H-cyclopenta[a]chrysen-9-yl)benzoic acid], the EC50 (class symbols (key in Table 1)) was under 0.1 µM.
Same read-out and setting: for `C=C(C)[C@@H]1CC[C@]2(NC(=O)N(CCCN(C)C)CCCN(C)C)CC[C@]3(C)[C@H](CC[C@@H]4[C@@]5(C)CC=C(c6ccc(C(=O)O)cc6)C(C)(C)[C@@H]5CC[C@]43C)[C@@H]12` [Example 30, 4-((1R,3aS,5aR,5bR,7aR,11aS,11bR,13aR,13bR)-3a-(3,3-bis(3-(dimethylamino)propyl)ureido)-5a,5b,8,8,11a-pentamethyl-1-(prop-1-en-2-yl)-2,3,3a,4,5,5a,5b,6,7,7a,8,11,11a,11b,12,13,13a,13b-octadecahydro-1H-cyclopenta[a]chrysen-9-yl)benzoic acid] the value was under 0.1 µM; for `C=C(C)[C@@H]1CC[C@]2(NC(=O)NCCN3CCCCC3=O)CC[C@]3(C)[C@H](CC[C@@H]4[C@@]5(C)CC=C(c6ccc(C(=O)O)cc6)C(C)(C)[C@@H]5CC[C@]43C)[C@@H]12` [Example 27, 4-((1R,3aS,5aR,5bR,7aR,11aS,11bR,13aR,13bR)-5a,5b,8,8,11a-pentamethyl-3a-(3-(2-(2-oxopiperidin-1-yl)ethyl)ureido)-1-(prop-1-en-2-yl)-2,3,3a,4,5,5a,5b,6,7,7a,8,11,11a,11b,12,13,13a,13b-octadecahydro-1H-cyclopenta[a]chrysen-9-yl)benzoic acid], under 0.1 µM; for `C=C(C)[C@@H]1CC[C@]2(NC(=O)CCCN(C)C)CC[C@]3(C)[C@H](CC[C@@H]4[C@@]5(C)CC=C(c6ccc(C(=O)O)cc6)C(C)(C)[C@@H]5CC[C@]43C)[C@@H]12` [Example 74, 4-((1R,3aS,5aR,5bR,7aR,11aS,11bR,13aR,13bR)-3a-(4-(dimethylamino)butanamido)-5a,5b,8,8,11a-pentamethyl-1-(prop-1-en-2-yl)-2,3,3a,4,5,5a,5b,6,7,7a,8,11,11a,11b,12,13,13a,13b-octadecahydro-1H-cyclopenta[a]chrysen-9-yl)benzoic acid], under 0.1 µM.
On the same count and under the same terms, the result for `C=C(C)[C@@H]1CC[C@]2(NC(=O)N3CCN(CCO)CC3)CC[C@]3(C)[C@H](CC[C@@H]4[C@@]5(C)CC=C(c6ccc(C(=O)O)cc6)C(C)(C)[C@@H]5CC[C@]43C)[C@@H]12` [Example 38, 4-((1R,3aS,5aR,5bR,7aR,11aS,11bR,13aR,13bR)-3a-(4-(2-hydroxyethyl)piperazine-1-carboxamido)-5a,5b,8,8,11a-pentamethyl-1-(prop-1-en-2-yl)-2,3,3a,4,5,5a,5b,6,7,7a,8,11,11a,11b,12,13,13a,13b-octadecahydro-1H-cyclopenta[a]chrysen-9-yl)benzoic acid] reads under 0.1 µM.
`C=C(C)[C@@H]1CC[C@]2(NCCNS(=O)(=O)CC)CC[C@]3(C)[C@H](CC[C@@H]4[C@@]5(C)CC=C(c6ccc(C(=O)O)cc6)C(C)(C)[C@@H]5CC[C@]43C)[C@@H]12` [Example B33, 4-((1R,3aS,5aR,5bR,7aR,11aS,11bR,13aR,13bR)-3a-((2-(ethylsulfonamido)ethyl)amino)-5a,5b,8,8,11a-pentamethyl-1-(prop-1-en-2-yl)-2,3,3a,4,5,5a,5b,6,7,7a,8,11,11a,11b,12,13,13a,13b-octadecahydro-1H-cyclopenta[a]chrysen-9-yl)benzoic acid]: the EC50 (numeric values) amounted to 0.005 µM.
Take `C=C(C)[C@@H]1CC[C@]2(NC(=O)NCCCN3CCOCC3)CC[C@]3(C)[C@H](CC[C@@H]4[C@@]5(C)CC=C(c6ccc(C(=O)O)cc6)C(C)(C)[C@@H]5CC[C@]43C)[C@@H]12` [Example 11, 4-((1R,3aS,5aR,5bR,7aR,11aS,11bR,13aR,13bR)-5a,5b,8,8,11a-pentamethyl-3a-(3-(3-morpholinopropyl)ureido)-1-(prop-1-en-2-yl)-2,3,3a,4,5,5a,5b,6,7,7a,8,11,11a,11b,12,13,13a,13b-octadecahydro-1H-cyclopenta[a]chrysen-9-yl)benzoic acid]: the EC50 (class symbols (key in Table 1)) was under 0.1 µM.
Consider `C=C(C)[C@@H]1CC[C@]2(NCCN3CCN(C(=O)OC(C)(C)C)CC3)CC[C@]3(C)[C@H](CC[C@@H]4[C@@]5(C)CC=C(c6ccc(C(=O)O)cc6)C(C)(C)[C@@H]5CC[C@]43C)[C@@H]12` [Example B13, 4-((1R,3aS,5aR,5bR,7aR,11aS,11bR,13aR,13bR)-3a-((2-(4-(tert-butoxycarbonyl)piperazin-1-yl)ethyl)amino)-5a,5b,8,8,11a-pentamethyl-1-(prop-1-en-2-yl)-2,3,3a,4,5,5a,5b,6,7,7a,8,11,11a,11b,12,13,13a,13b-octadecahydro-1H-cyclopenta[a]chrysen-9-yl)benzoic acid], for which the EC50 (class symbols (key in Table 1)) is under 0.1 µM.
Same read-out and setting: the result for `C=C(C)[C@@H]1CC[C@]2(NC(=O)OCCN3CCS(=O)(=O)CC3)CC[C@]3(C)[C@H](CC[C@@H]4[C@@]5(C)CC=C(c6ccc(C(=O)O)cc6)C(C)(C)[C@@H]5CC[C@]43C)[C@@H]12` [Example 71, benzoic acid, 4-[(1R,3aS,5aR,5bR,7aR,11aS,11bR,13aR,13bR)-3a-[[[2-(1,1-dioxido-4-thiomorpholinyl)ethoxy]carbonyl]amino]-2,3,3a,4,5,5a,5b,6,7,7a,8,11,11a,11b,12,13,13a,13b-octadecahydro-5a,5b,8,8,11a-pentamethyl-1-(1-methylethenyl)-1H-cyclopenta[a]chrysen-9-yl]] reads under 0.1 µM; that for `C=C(C)[C@@H]1CC[C@]2(NCc3cscn3)CC[C@]3(C)[C@H](CC[C@@H]4[C@@]5(C)CC=C(c6ccc(C(=O)O)cc6)C(C)(C)[C@@H]5CC[C@]43C)[C@@H]12` [Example 161, 4-((1R,3aS,5aR,5bR,7aR,11aS,11bR,13aR,13bR)-5a,5b,8,8,11a-pentamethyl-1-(prop-1-en-2-yl)-3a-(thiazol-4-ylmethylamino)-2,3,3a,4,5,5a,5b,6,7,7a,8,11,11a,11b,12,13,13a,13b-octadecahydro-1H-cyclopenta[a]chrysen-9-yl)benzoic acid], under 0.1 µM.
